Test results: PMC4942611, “Promising Tools in Prostate Cancer Research: Selective Non-Steroidal Cytochrome P450 17A1 Inhibitors” (Scientific Reports, 2016)
Like-named read-outs stand apart in the source and are kept apart here.

Experiments:
H295R cell line = assay: H295R steroid hormone synthesis assay, production of steroidal hormones; format: cell-based, human; settings: for IC50: Homo sapiens, NCI-H295R
Experimental: (§1) The H295R steroid hormone synthesis assay was performed according to the OECD validation guideline. Cells were cultured in DMEM/F12 media supplemented with 1% ITS-premix and 2.5% Nu-serum at 37 °C with a 5% CO2 atmosphere. The cells were only used for experiments between passage […]. During exposure experiments, cells were grown in 24 well plates with a density of 3 × 10^5 cells/mL. […] To avoid interference from low levels of steroid hormones present in the Nu-serum, the exposure experiment was conducted with serum-free media. Each compound was tested at a minimum of seven concentration levels using three or more replicates and the experiment was repeated on two different days (n = 6–15). On each test plate a solvent control (SC) (medium with 0.1% DMSO) was included in triplicate and the maximal concentration of DMSO in the cell medium was 0.1%[49]. After 48 hours of incubation in presence of the test compounds, 950 μL of the medium was carefully removed and internal standards (50 μl of 0.1 μg/μl solution containing deuterated steroid analogues) were added. Samples were stored at −20 °C for later analysis.
(§2) Steroid extraction and clean-up were performed by double protein precipitation. First, 900 μL of cold acetonitrile were added to the samples, which were then vortexed and centrifuged at ~9500 × g for 10 minutes. Second, 900 μL cold methanol was added to the supernatant and the mixture was vortexed and centrifuged at 1500 × g for 10 minutes. Finally, the supernatant was collected and concentrated to ~1 mL under a gentle stream of nitrogen at 60 °C.
(§3) For on-line solid phase extraction (SPE) of steroids, a total of 100 μL was injected on a binary 1290 Agilent Infinity Series system and a binary 1100 Agilent HPLC pump were used in combination (Agilent Technologies, Palo Alto, CA, USA). For online clean-up, a C18 enrichment column (μbondapak® C18, 3.9 × 20 mm, 10 μm, Waters) was used. The enrichment column was connected to the autosampler through the TTC switching valve (two positions, 6 ports). Between the autosampler and the TTC switching valve a 0.3 μm in-line filter (1290 infinity in-line filter, Agilent) was installed. Separation of steroid hormones was performed using a C18 analytical column (Kinetex, 2.6 μm C18 100 Å, 75 × 2.1 mm, Phenomenex, USA). An isocratic flow of 1 mL/min H2O:methanol:formic acid at 90:10:0.1 (v/v/v) was generated by the 1100 pump which was connected to the autosampler. The 1290 pump performed a gradient elution with a flow rate of 0.3 mL which was connected to the TTC switching valve. Mobile phase A and B were composed of H2O with 0.1% formic acid (v/v) and pure methanol, respectively. The elution gradient was maintained at 10% B for the first 2 min, changed to 10.0–30.0% from 2.0 to 2.2 min, 30.0–60.0% from 2.2 to 8.0 min, maintained at 60.0% from 8.0 to 10.0 min, increased to 60.0–85.0% from 10.0 to 12.30 min, 85.0–99.5% from 12.3 to 12.5 min and held at 99.5% from 12.5 to 14.8 min, before re-equilibrating the column until 16 minutes.
(§4) For detection, an AB SCIEX 4500 QTRAP mass spectrometer (Applied Biosystems, Foster City, CA, USA) equipped with an atmospheric pressure chemical ionization (APCI) Turbo V source was used. Multiple reaction monitoring (MRM) was performed in positive mode during the analysis with a targeted scan time of 0.8 sec. Nitrogen was applied as curtain, collision, and ion source gases.

CYP17A1 = target: T1, CYP17A1 (Homo sapiens, UniProt P05093); assay: H295R cell assay, CYP17A1 hydroxylase and lyase activity; format: cell-based; settings: for IC50: 48 hours, mean over 6 to 15 measurements ± standard error
T1 construct: endogenous in cells; host or cells: H295R
T1 sequence (P05093 1-508): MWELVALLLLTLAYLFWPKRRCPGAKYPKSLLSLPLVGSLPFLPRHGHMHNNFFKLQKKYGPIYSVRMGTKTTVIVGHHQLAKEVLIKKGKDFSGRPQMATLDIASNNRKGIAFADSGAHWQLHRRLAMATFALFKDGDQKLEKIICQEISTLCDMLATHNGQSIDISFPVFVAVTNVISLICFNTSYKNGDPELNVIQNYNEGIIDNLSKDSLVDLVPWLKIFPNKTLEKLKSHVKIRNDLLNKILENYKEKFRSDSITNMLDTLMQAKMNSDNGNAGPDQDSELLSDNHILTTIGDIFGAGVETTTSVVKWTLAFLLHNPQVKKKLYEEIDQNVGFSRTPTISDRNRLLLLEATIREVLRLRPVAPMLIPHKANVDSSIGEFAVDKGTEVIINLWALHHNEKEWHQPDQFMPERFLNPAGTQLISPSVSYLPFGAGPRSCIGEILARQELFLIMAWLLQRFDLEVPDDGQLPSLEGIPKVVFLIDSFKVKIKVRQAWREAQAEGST
Experimental: as §1, §2, §3, §4

[1] = H295R, progestagens, EC200 ± standard error
[2] = H295R, androgens, read-out: AN IC50
[3] = H295R, androgens, read-out: DHEA IC50
[4] = H295R, androgens, read-out: TS IC50
[5] = H295R, corticosteroids, read-out: 11deoxy-COR IC50
[6] = H295R, corticosteroids, read-out: 11deoxy-COS IC50
[7] = H295R, corticosteroids, read-out: COR IC50
[8] = H295R, corticosteroids, read-out: CORNE IC50
[9] = H295R, estrogens, read-out: E1 IC50
[10] = H295R, estrogens, read-out: E-E2 IC50
[11] = H295R, progestagens, mean over 6 to 15 measurements ± standard error, read-out: PREG IC50
[12] = H295R, progestagens, read-out: 17OH-PREG IC50
[13] = H295R, progestagens, read-out: 17OH-PROG IC50
[14] = based on conversion of 17-OH-PRE into DHEA, read-out: IC50 lyase, H295R system
[15] = based on conversion of PRE into 17-OH-PRE, read-out: IC50 hydroxylase, H295R system

SMILES | Effect on the CYP17A1 substrates pregnenolone and progesterone (H295R cell line; H295R cells) | PREG EC200 (H295R cell line; [1]) | PROG EC200 (H295R cell line; [1]) | IC50 (H295R cell line; [2]) | IC50 (H295R cell line; [3]) | IC50 (H295R cell line; [4]) | IC50 (H295R cell line; [5]) | IC50 (H295R cell line; [6]) | IC50 (H295R cell line; [7]) | IC50 (H295R cell line; [8]) | IC50 (H295R cell line; [9]) | IC50 (H295R cell line; [10]) | IC50 (H295R cell line; [11]) | IC50 (H295R cell line; [12]) | IC50 (H295R cell line; [13]) | IC50 (CYP17A1; [14]) | IC50 (CYP17A1; [15]) | further results
Cc1ccc(-c2csc(-c3cccnc3)n2)c(C)c1 [Compound 1] | dose-dependent increases | 500 ± 70 nM | 146 ± 7 nM | 68 ± 2 nM | 94 ± 30 nM | 52 ± 2 nM | 480 ± 10 nM | 310 ± 60 nM | 1200 ± 100 nM | 700 ± 100 nM | 220 ± 10 nM | 235 ± 6 nM | 390 ± 70 nM | 830 ± 80 nM | 800 ± 200 nM | 94 ± 30 nM | 830 ± 80 nM | 11deoxy-COS EC200 (H295R cell line; H295R, EC200 ± standard error): 146 ± 4 nM; COS EC200 (H295R cell line; H295R, EC200 ± standard error): 56 ± 1 nM; IC50 (H295R cell line; H295R cells, read-out: IC50 values for progestagens and corticosteroids (range)): 300 to 1200 nM
CCCn1nnc2cc(-c3cc(-c4ccncc4)c(C#N)c(N)n3)ccc21 [Compound 2] | dose-dependent increases | 19 ± 4 nM | 32 ± 4 nM | 4.3 ± 0.1 nM | 7.4 ± 0.1 nM | 3.3 ± 0.2 nM | 54 ± 5 nM | 23.8 ± 0.9 nM | 36 ± 4 nM | 23 ± 1 nM | 19 ± 3 nM | 50 ± 10 nM | 15 ± 3 nM | 52 ± 4 nM | 20 ± 1 nM | 7.4 ± 0.1 nM | 52 ± 4 nM | IC50 (H295R cell line; H295R, corticosteroids, read-out: COS IC50): 36 ± 4 nM
C[C@]12CC[C@H](O)CC1=CC[C@@H]1[C@@H]2CC[C@]2(C)C(c3cccnc3)=CC[C@@H]12 [abiraterone, reference compound] | – | 7.3 ± 0.3 nM | 1.0 ± 0.1 nM | 0.5 nM | 1.8 ± 0.1 nM | 0.2 nM | 5.3 ± 0.1 nM | – | 5 ± 0.4 nM | 2.5 ± 0.1 nM | 0.8 ± 0.1 nM | 408 ± 60 nM | 5.9 ± 0.5 nM | 9.7 ± 0.3 nM | 6.3 ± 0.2 nM | – | 9.4 ± 0.3 nM | IC50 (H295R cell line; H295R, progestagens, mean over 6 to 15 measurements ± standard error, read-out: PROG IC50): 181 ± 5 nM; IC50 (H295R cell line; H295R, calculated on low concentrations of abiraterone (first part of the Gaussian-like curve), read-out: 11deoxy-COS IC50): 2.6 ± 0.5 nM; IC50 (H295R cell line; H295R, calculated on low concentrations of abiraterone (first part of the Gaussian-like curve), read-out: COS IC50): 2.9 ± 0.5 nM; IC50 (H295R cell line; H295R, calculated using high concentrations of abiraterone (second part of the Gaussian-like curve), read-out: 11deoxy-COS IC50): 240 ± 20 nM; Inhibitor concentrations at which CYP17A1 is inhibited (only CYP17A1 affected) (CYP17A1; H295R cells): 2.5 to 10 nM
